Source: BindingDB's records for doi:10.1016/j.bmcl.2004.07.023 (North Dakota State University, 2004)

Target: T1, Interstitial collagenase (Homo sapiens, UniProt P03956)
T1 sequence (P03956 whole entry): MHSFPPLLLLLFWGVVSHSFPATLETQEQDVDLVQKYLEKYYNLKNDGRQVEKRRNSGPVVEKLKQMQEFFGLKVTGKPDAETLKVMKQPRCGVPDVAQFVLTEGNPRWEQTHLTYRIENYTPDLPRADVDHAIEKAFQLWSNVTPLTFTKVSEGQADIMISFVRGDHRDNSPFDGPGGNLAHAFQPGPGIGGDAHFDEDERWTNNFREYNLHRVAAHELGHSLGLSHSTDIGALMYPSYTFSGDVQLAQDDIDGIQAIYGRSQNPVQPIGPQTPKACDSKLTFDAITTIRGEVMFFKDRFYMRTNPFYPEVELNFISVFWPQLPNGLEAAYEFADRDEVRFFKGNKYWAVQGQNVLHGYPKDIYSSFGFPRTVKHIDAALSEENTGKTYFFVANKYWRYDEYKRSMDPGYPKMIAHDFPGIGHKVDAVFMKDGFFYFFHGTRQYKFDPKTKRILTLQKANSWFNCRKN
Test: Inhibitory activity against matrix metalloprotease-1; No activity upto solubility limit

For C=C[C@@H]1OC(c2ccc(Br)cc2)=N[C@H]1Sc1ccccc1 [(4S,5S)-2-(4-Bromo-phenyl)-4-phenylsulfanyl-5-vinyl-4,5-dihydro-oxazole], the Ki was > 30 µM.
